Measurements as given in BigSolDB 2.1.

C[C@H]1[C@H](C)CC[C@]2(C(=O)O)CC[C@]3(C)C(=CC[C@@H]4[C@@]5(C)CC[C@H](O)C(C)(C)[C@@H]5CC[C@]43C)[C@H]12
solubility (mole fraction)
Conditions	278.2 K	283.2 K	288.2 K	293.2 K	298.2 K	303.2 K	308.2 K	313.2 K	318.2 K
in MIBK	0.00094	0.00104	0.00106	0.00109	0.00127	0.00128	0.0015	0.00169	0.00184
in MTBE	0.00167	0.00175	0.0021	0.00248	0.00288	0.00305	0.00311	0.00315	0.00338
in n-butanol	0.00153	0.00168	0.00226	0.00266	0.00334	0.00387	0.00411	0.00466	0.00504
